The text below walks through data of patent publication US12310975B2, “Modulators of BCL6 proteolysis and associated methods of use” (Arvinas Operations, Inc., priority 2019, dated 2025).

Bounds are passed on as bounds.

One may read the IC50 as the concentration at which inhibition is half-maximal. A low value points to greater potency in that assay. A word on the Dmax: it is the largest share of the target that was removed.

The target in one assay is BCL6 (Homo sapiens (Human), UniProt P41182). The assay can be described thus: Immunofluorescence high content imaging of BCL6 degradation in T47D cells. It counts as cell-based.
Settings: not given
In short, it runs like this: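 T47D, 3 d compound exposure, 11-pt 3-fold series, top 0.1 or 1 μM final. Fix 4% PFA, Triton permeabilize, anti-BCL6 primary overnight 4 °C, Alexa-488 secondary. High-content imaging 10×, 4 fields/well, top-hat smoothing.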
`CNC(=O)CNc1cc2cc(Nc3nc(N4CCN(CC5CCN(c6ccc7c(c6)C(=O)N(C6CCC(=O)NC6=O)C7=O)CC5)CC4)ncc3Cl)ccc2n(C)c1=O` (centres unmarked) [compound 262, 2-((6-((5-chloro-2-(4-((1-(2-(2,6-dioxopiperidin-3-yl)-1,3-dioxoisoindolin-5-yl)piperidin-4-yl)methyl)piperazin-1-yl)pyrimidin-4-yl)amino)-1-methyl-2-oxo-1,2-dihydroquinolin-3-yl)amino)-N-methylacetamide] registered an IC50 of under 10 nM.

For the molecule `CNC(=O)COc1cc2cc(Nc3nc(N4CCC(CCOC5CN(c6ccc7c(c6)C(=O)N(C6CCC(=O)NC6=O)C7=O)C5)CC4)ncc3Cl)ccc2n(C)c1=O` (centres unmarked) [compound 247, 2-((6-((5-chloro-2-(4-(2-((1-(2-(2,6-dioxopiperidin-3-yl)-1,3-dioxoisoindolin-5-yl)azetidin-3-yl)oxy)ethyl)piperidin-1-yl)pyrimidin-4-yl)amino)-1-methyl-2-oxo-1,2-dihydroquinolin-3-yl)oxy)-N-methylacetamide], the IC50 is under 10 nM.

Still in this assay, the particulars now being: T47D.
As for `CNC(=O)CNc1cc2cc(Nc3nc(N4CCN(CC5CCN(c6ccc7c(c6)C(=O)N(C6CCC(=O)NC6=O)C7=O)CC5)CC4)ncc3Cl)ccc2n(C)c1=O` (centres unmarked) [compound 262, 2-((6-((5-chloro-2-(4-((1-(2-(2,6-dioxopiperidin-3-yl)-1,3-dioxoisoindolin-5-yl)piperidin-4-yl)methyl)piperazin-1-yl)pyrimidin-4-yl)amino)-1-methyl-2-oxo-1,2-dihydroquinolin-3-yl)amino)-N-methylacetamide], the greatest degradation seen (Dmax) is at least 70%. Consider `CNC(=O)COc1cc2cc(Nc3nc(N4CCC(CCOC5CN(c6ccc7c(c6)C(=O)N(C6CCC(=O)NC6=O)C7=O)C5)CC4)ncc3Cl)ccc2n(C)c1=O` (centres unmarked) [compound 247, 2-((6-((5-chloro-2-(4-(2-((1-(2-(2,6-dioxopiperidin-3-yl)-1,3-dioxoisoindolin-5-yl)azetidin-3-yl)oxy)ethyl)piperidin-1-yl)pyrimidin-4-yl)amino)-1-methyl-2-oxo-1,2-dihydroquinolin-3-yl)oxy)-N-methylacetamide], for which the Dmax was in the range of 50 to 70%.

The assay is the same for the next values; noted with them: T47D cells.
In turn, `CNC(=O)COc1cc2cc(Nc3nc(N4CCN(C(C)(C)C5CCN(c6ccc(C(=O)NC7CCC(=O)NC7=O)c(OC)c6)CC5)CC4)ncc3Cl)ccc2n(C)c1=O` (centres unmarked) [compound 315, 4-[4-(2-{4-[5-chloro-4-({1-methyl-3-[(methylcarbamoyl)methoxy]-2-oxo-1,2-dihydroquinolin-6-yl}amino)pyrimidin-2-yl]piperazin-1-yl}propan-2-yl)piperidin-1-yl]-N-(2,6-dioxopiperidin-3-yl)-2-methoxybenzamide] had a Dmax of 50 to 70% and a half-maximal inhibitory concentration (IC50) of 10 to 50 nM. Molecule `CNC(=O)COc1cc2cc(Nc3nc(N4CCN(CC5CCN(c6cccc(C(=O)NC7CCC(=O)NC7=O)c6)CC5)CC4)ncc3Cl)ccc2n(C)c1=O` (centres unmarked) [compound 319, 3-[4-({4-[5-chloro-4-({1-methyl-3-[(methylcarbamoyl)methoxy]-2-oxo-1,2-dihydroquinolin-6-yl}amino)pyrimidin-2-yl]piperazin-1-yl}methyl)piperidin-1-yl]-N-(2,6-dioxopiperidin-3-yl)benzamide] yielded a Dmax of under 50% and an IC50 of 50 to 100 nM.

The molecule `CNC(=O)COc1cc2cc(Nc3nc(N4CCC[C@H](COc5cccc6c5C(=O)N(C5CCC(=O)NC5=O)C6=O)C4)ncc3Cl)ccc2n(C2CC2)c1=O` (stereo partly drawn) [compound 336, 2-{[6-({5-chloro-2-[(3S)-3-({[2-(2,6-dioxopiperidin-3-yl)-1,3-dioxo-2,3-dihydro-1H-isoindol-4-yl]oxy}methyl)piperidin-1-yl]pyrimidin-4-yl}amino)-1-cyclopropyl-2-oxo-1,2-dihydroquinolin-3-yl]oxy}-N-methylacetamide] registered a Dmax of 50 to 70% and a half-maximal inhibitory concentration (IC50) of 10 to 50 nM. `CCC(C1CCN(c2ccc3c(c2)C(=O)N(C2CCC(=O)NC2=O)C3=O)CC1)N1CCN(c2ncc(Cl)c(Nc3ccc4c(c3)cc(OCC(=O)NC)c(=O)n4C)n2)CC1` (centres unmarked) [compound 337, 2-{[6-({5-chloro-2-[4-(1-{1-[2-(2,6-dioxopiperidin-3-yl)-1,3-dioxo-2,3-dihydro-1H-isoindol-5-yl]piperidin-4-yl}propyl)piperazin-1-yl]pyrimidin-4-yl}amino)-1-methyl-2-oxo-1,2-dihydroquinolin-3-yl]oxy}-N-methylacetamide] registered a Dmax of under 50%. Molecule `CNC(=O)COc1cc2cc(Nc3nc(N4CCC(OC5CC6(CCN(c7cccc(C(=O)NC8CCC(=O)NC8=O)c7F)CC6)C5)CC4)ncc3Cl)ccc2n(C(C)C)c1=O` (centres unmarked) [compound 433, 3-[2-({1-[5-chloro-4-({3-[(methylcarbamoyl)methoxy]-2-oxo-1-(propan-2-yl)-1,2-dihydroquinolin-6-yl}amino)pyrimidin-2-yl]piperidin-4-yl}oxy)-7-azaspiro[3.5]nonan-7-yl]-N-(2,6-dioxopiperidin-3-yl)-2-fluorobenzamide] came in with a Dmax of at least 70%.

Consider `CNC(=O)COc1cc2cc(Nc3nc(N4CCC(CN5CCC(c6ccc(N7CCC(=O)NC7=O)c(OC)c6)CC5)CC4)ncc3Cl)ccc2n(C(C)C)c1=O` [compound 415, 2-{[6-({5-chloro-2-[4-({4-[4-(2,4-dioxo-1,3-diazinan-1-yl)-3-methoxyphenyl]piperidin-1-yl}methyl)piperidin-1-yl]pyrimidin-4-yl}amino)-2-oxo-1-(propan-2-yl)-1,2-dihydroquinolin-3-yl]oxy}-N-methylacetamide], for which the half-maximal inhibitory concentration (IC50) is at least 100 nM. With `CNC(=O)COc1cc2cc(Nc3nc(N4CCC(CN5CCC(c6ccc7c(c6)C(=O)N(C6CCC(=O)NC6=O)C7=O)CC5)CC4)ncc3Cl)ccc2n(C(C)C)c1=O` (centres unmarked) [compound 365, 2-{[6-({5-chloro-2-[4-({4-[2-(2,6-dioxopiperidin-3-yl)-1,3-dioxo-2,3-dihydro-1H-isoindol-5-yl]piperidin-1-yl}methyl)piperidin-1-yl]pyrimidin-4-yl}amino)-2-oxo-1-(propan-2-yl)-1,2-dihydroquinolin-3-yl]oxy}-N-methylacetamide], the Dmax is at least 70% and the IC50 was under 10 nM. Molecule `CNC(=O)COc1cc2cc(Nc3nc(N4CCC5(CC4)CC(OC4CCN(c6ccc7c(c6)C(=O)N(C6CCC(=O)NC6=O)C7=O)CC4)C5)ncc3Cl)ccc2n(C(C)C)c1=O` (centres unmarked) [compound 392, 2-{[6-({5-chloro-2-[2-({1-[2-(2,6-dioxopiperidin-3-yl)-1,3-dioxo-2,3-dihydro-1H-isoindol-5-yl]piperidin-4-yl}oxy)-7-azaspiro[3.5]nonan-7-yl]pyrimidin-4-yl}amino)-2-oxo-1-(propan-2-yl)-1,2-dihydroquinolin-3-yl]oxy}-N-methylacetamide] gave an IC50 of at least 100 nM.

Staying with this assay, now noted: class symbols A-D, read-out: EC50 (nM)*.
With `CNC(=O)COc1cc2cc(Nc3nc(N4CCC(c5cn(CCOCC(=O)N[C@H](C(=O)N6C[C@H](O)C[C@H]6C(=O)N[C@@H](C)c6ccc(-c7scnc7C)cc6)C(C)(C)C)nn5)CC4)ncc3Cl)ccc2n(C)c1=O` [compound 114, (2S,4R)-1-((S)-2-(2-(2-(4-(1-(5-chloro-4-((1-methyl-3-(2-(methylamino)-2-oxoethoxy)-2-oxo-1,2-dihydroquinolin-6-yl)amino)pyrimidin-2-yl)piperidin-4-yl)-1H-1,2,3-triazol-1-yl)ethoxy)acetamido)-3,3-dimethylbutanoyl)-4-hydroxy-N-((S)-1-(4-(4-methylthiazol-5-yl)phenyl)ethyl)pyrrolidine-2-carboxamide], the DC50 fell in the range of 50 to 100 nM. In the case of `CN1C(=O)CCc2cc(Nc3cc(N4CCC(CN5CCN(c6ccc7c(c6)C(=O)N(C6CCC(=O)NC6=O)C7=O)CC5)CC4)c([N+](=O)[O-])cc3Cl)ccc21` (centres unmarked) [compound 77, 5-(4-((1-(4-chloro-5-((1-methyl-2-oxo-1,2,3,4-tetrahydroquinolin-6-yl)amino)-2-nitrophenyl)piperidin-4-yl)methyl)piperazin-1-yl)-2-(2,6-dioxopiperidin-3-yl)isoindoline-1,3-dione], the DC50 was over 100 nM. As for `CNC(=O)COc1cc2cc(Nc3nc(N4CCC(OCCOCCOCCOCCOCCOCCNc5cccc6c5C(=O)N(C5CCC(=O)NC5=O)C6=O)CC4)ncc3Cl)ccc2n(C)c1=O` (centres unmarked) [compound 81, 2-((6-((5-chloro-2-(4-((17-((2-(2,6-dioxopiperidin-3-yl)-1,3-dioxoisoindolin-4-yl)amino)-3,6,9,12,15-pentaoxaheptadecyl)oxy)piperidin-1-yl)pyrimidin-4-yl)amino)-1-methyl-2-oxo-1,2-dihydroquinolin-3-yl)oxy)-N-methylacetamide], the DC50 was over 100 nM. Still for that read-out and setting: next, `CNC(=O)COc1cc2cc(Nc3nc(N4CCC(OCCOCCOCCOCCOc5cccc(-c6ccc7c(c6)CN(C6CCC(=O)NC6=O)C7=O)c5)CC4)ncc3Cl)ccc2n(C)c1=O` (centres unmarked) [compound 109, 2-((6-((5-chloro-2-(4-(2-(2-(2-(2-(3-(2-(2,6-dioxopiperidin-3-yl)-1-oxoisoindolin-5-yl)phenoxy)ethoxy)ethoxy)ethoxy)ethoxy)piperidin-1-yl)pyrimidin-4-yl)amino)-1-methyl-2-oxo-1,2-dihydroquinolin-3-yl)oxy)-N-methylacetamide]: over 100 nM; `CNC(=O)COc1cc2cc(Nc3nc(N4CCC(N(C)[C@H]5CC[C@H](CN6CCN(c7ccc8c(c7)CN(C7CCC(=O)NC7=O)C8=O)CC6)CC5)CC4)ncc3Cl)ccc2n(C)c1=O` (some centres unmarked) [compound 101, 2-((6-((5-chloro-2-(4-(((1r,4r)-4-((4-(2-(2,6-dioxopiperidin-3-yl)-1-oxoisoindolin-5-yl)piperazin-1-yl)methyl)cyclohexyl) (methyl)amino)piperidin-1-yl)pyrimidin-4-yl)amino)-1-methyl-2-oxo-1,2-dihydroquinolin-3-yl)oxy)-N-methylacetamide]: under 10 nM; `CNC(=O)COc1cc2cc(Nc3nc(N4CCC(OCCOCCOCCOCCOCCNc5cccc6c5C(=O)N(C5CCC(=O)NC5=O)C6=O)CC4)ncc3Cl)ccc2n(C)c1=O` (centres unmarked) [compound 69, 2-((6-((5-chloro-2-(4-((14-((2-(2,6-dioxopiperidin-3-yl)-1,3-dioxoisoindolin-4-yl)amino)-3,6,9,12-tetraoxatetradecyl)oxy)piperidin-1-yl)pyrimidin-4-yl)amino)-1-methyl-2-oxo-1,2-dihydroquinolin-3-yl)oxy)-N-methylacetamide]: over 100 nM. On to `CNC(=O)COc1cc2cc(Nc3nc(N4CCC(OCCOCCOCCCCOc5ccc(-c6ccc7c(c6)CN(C6CCC(=O)NC6=O)C7=O)cc5)CC4)ncc3Cl)ccc2n(C)c1=O` (centres unmarked) [compound 94, 2-((6-((5-chloro-2-(4-(2-(2-(4-(4-(2-(2,6-dioxopiperidin-3-yl)-1-oxoisoindolin-5-yl)phenoxy)butoxy)ethoxy)ethoxy)piperidin-1-yl)pyrimidin-4-yl)amino)-1-methyl-2-oxo-1,2-dihydroquinolin-3-yl)oxy)-N-methylacetamide], for which the DC50 was over 100 nM.
